Read-outs that look alike come from different tables or passages of the source.
Key:
Type in all cases: in vivo
[1] = test system: Lolium rigidum (LOLRI); experiment: Post-emergence herbicidal action against LOLRI; details: dosage 320 g/ha
Outline: (§1)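 Post-emergence greenhouse spray, one-leaf stage, 600 l/ha water plus 0.5% additive; WP or EC formulations; application rates 320 g/ha or lower. Visual % damage vs untreated controls at ~3 weeks.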

[2] = test system: Echinochloa crus-galli (ECHCG); experiment: Pre-emergence herbicidal action against ECHCG; details: dosage 320 g/ha
Outline: (§2)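 Application rates ran to 320 g/ha or lower, with several dosages tested on the same weeds. The compound, as wettable powder or emulsion concentrate, is sprayed pre-emergence onto soil over sown seeds; greenhouse growth follows, and effect is rated visually after roughly 3 weeks.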

[3] = test system: Alopecurus myosuroides (ALOMY); experiment: Pre-emergence herbicidal action against ALOMY; details: scored visually after about 3 weeks, 100% = plants have died
Outline: as §2

[4] = test system: Viola tricolor (VIOTR); experiment: Post-emergence herbicidal action against VIOTR; details: 320 g/ha
Outline: as §1

[5] = test system: Avena fatua (AVEFA); experiment: Post-emergence herbicidal action against AVEFA; details: visual rating about 3 weeks after treatment
Outline: as §1

[6] = test system: Amaranthus retroflexus (AMARE); experiment: Post-emergence herbicidal action against AMARE
Outline: as §1

[7] = test system: Pharbitis purpurea (PHBPU); experiment: Post-emergence herbicidal action against PHBPU
Outline: as §1

[8] = test system: Verconica persica (VERPE); experiment: Post-emergence herbicidal action against VERPE
Outline: as §1

[9] = test system: Lolium rigidum (LOLRI); experiment: Pre-emergence herbicidal action against LOLRI
Outline: as §2

[10] = test system: Oryza sativa (ORYSA); details: pre-emergence, 80 g/ha, crop plant compatibility, in comparison to untreated controls
Outline: (§3)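 Crop injury rated visually in percent against untreated plants roughly 3 weeks after treatment (0% no effect, 100% plants dead). Compounds, as WP or EC with 0.5% additive in 600 l/ha water, were applied to the covering soil right after sowing; greenhouse growth. Suffixes a, b, c denote different dosages.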

[11] = test system: Zea mays (ZEAMX); details: pre-emergence, 80 g/ha, crop plant compatibility, in comparison to untreated controls
Outline: as §3

[12] = test system: Amaranthus retroflexus (AMARE); experiment: Pre-emergence herbicidal action against AMARE; details: visual scoring after about 3 weeks vs untreated controls
Outline: as §2

[13] = test system: Alopecurus myosuroides (ALOMY); experiment: Post-emergence herbicidal action against ALOMY; details: visual rating about 3 weeks after treatment vs untreated controls (100% = plants have died, 0% = like control plants)
Outline: as §1

[14] = test system: Setaria viridis (SETVI); experiment: Pre-emergence herbicidal action against SETVI
Outline: as §2

[15] = test system: Viola tricolor (VIOTR); experiment: Pre-emergence herbicidal action against VIOTR
Outline: as §2

[16] = test system: Echinochloa crus-galli (ECHCG); experiment: Post-emergence herbicidal action against ECHCG
Outline: as §1

[17] = test system: Setaria viridis (SETVI); experiment: Post-emergence herbicidal action against SETVI
Outline: as §1

[18] = test system: Matricaria inodora (MATIN); experiment: Pre-emergence herbicidal action against MATIN; details: dosage 320 g/ha
Outline: as §2

[19] = test system: Polygonum convolvulus (POLCO); experiment: Post-emergence herbicidal action against POLCO
Outline: as §1

[20] = test system: Digitaria sanguinalis (DIGSA); experiment: Pre-emergence herbicidal action against DIGSA
Outline: as §2

[21] = test system: Verconica persica (VERPE); experiment: Pre-emergence herbicidal action against VERPE; details: dosage 320 g/ha
Outline: as §2

[22] = test system: Digitaria sanguinalis (DIGSA); experiment: Post-emergence herbicidal action against DIGSA; details: visual rating about 3 weeks after treatment
Outline: as §1

[23] = test system: Oryza sativa (ORYSA); details: crop plant compatibility
Outline: (§4)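 One-leaf-stage crops (2–3 wk post-sowing, sandy loam, greenhouse) sprayed on green parts; 0.5% additive, 600 l/ha water. Rated by eye ~3 wk later, % vs untreated; suffixes a/b/c mark different dosages.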

[24] = test system: Zea mays (ZEAMX); details: for Post-emergence action against ZEAMX in %: crop plant compatibility, effect vs untreated controls
Outline: as §4

[25] = test system: Avena fatua (AVEFA); experiment: Pre-emergence herbicidal action against AVEFA; details: 320 g/ha, visual scoring after about 3 weeks vs untreated controls
Outline: as §2

[26] = test system: Pharbitis purpurea (PHBPU); experiment: Pre-emergence herbicidal action against PHBPU; details: dosage 320 g/ha
Outline: as §2

[27] = test system: Abutilon theophrasti (ABUTH); experiment: Post-emergence herbicidal action against ABUTH; details: 320 g/ha, visual rating about 3 weeks after treatment vs untreated controls (100% = plants have died, 0% = like control plants)
Outline: as §1

[28] = test system: Polygonum convolvulus (POLCO); experiment: Pre-emergence herbicidal action against POLCO; details: dosage 320 g/ha
Outline: as §2

[29] = 80 g/ha, visual rating about 3 weeks after treatment vs untreated controls (100% = plants have died, 0% = like control plants)
[30] = 80 g/ha, visual scoring after about 3 weeks vs untreated controls
[31] = 80 g/ha, effect in comparison to untreated controls

SMILES	Pre-emergence action against ECHCG in % [2] [%]	Pre-emergence action against ALOMY ([3]; 320 g/ha) [%]	Post-emergence action against VIOTR in % [4] [%]	Post-emergence action against AVEFA in % ([5]; 320 g/ha) [%]	Post-emergence action against AMARE in % [6, 29] [%]	Post-emergence action against PHBPU in % ([7]; dosage 320 g/ha) [%]	Post-emergence action against VERPE in % ([8]; 320 g/ha, VERPE) [%]	Pre-emergence action against LOLRI in % ([9]; dosage 320 g/ha) [%]	Pre-emergence action against ORYSA in % [10] [%]	Pre-emergence action against ZEAMX in % [11] [%]	Pre-emergence action against AMARE in % ([12]; 320 g/ha) [%]	Post-emergence action against ALOMY in % ([13]; 80 g/ha) [%]	Post-emergence action against ALOMY in % ([13]; 320 g/ha) [%]	Pre-emergence action against SETVI in % ([14]; dosage 320 g/ha) [%]	Pre-emergence action against VIOTR in % ([15]; 320 g/ha, Viola tricolor) [%]	Post-emergence action against ECHCG in % ([16]; dosage 320 g/ha) [%]	Post-emergence action against SETVI in % ([17]; dosage 320 g/ha) [%]	Pre-emergence action against DIGSA in % ([20]; dosage 320 g/ha) [%]	Pre-emergence action against VERPE in % [21] [%]	Post-emergence action against ORYSA in % [23, 31] [%]	further results
O=C(O)COc1nn(-c2nc(F)ccc2F)c(-c2ccc(F)nc2)c1C1CC1 [Example I-302]	90	90	80	80	80	80	80	90	20	10	90	80	90	100	90	80	90	100	90	20	Post-emergence action against LOLRI in % [1]: 80%; Post-emergence action against AVEFA in % ([5]; 80 g/ha): 80%; Post-emergence action against AMARE in % ([6]; 320 g/ha, visual rating about 3 weeks after treatment): 90%; Pre-emergence action against LOLRI in % ([9]; dosage 80 g/ha): 80%; Post-emergence action against SETVI in % ([17]; dosage 80 g/ha): 80%; Pre-emergence action against MATIN in % [18]: 90%; Post-emergence action against POLCO in % ([19]; dosage 320 g/ha): 80%; Pre-emergence action against DIGSA in % [20, 30]: 90%; Post-emergence action against DIGSA in % ([22]; 320 g/ha): 80%; Post-emergence action against ZEAMX in % ([24]; 80 g/ha): 0%; Post-emergence action against ZEAMX in % ([24]; 320 g/ha): 10%
COC(=O)COc1nn(-c2ncccc2C(F)(F)F)c(-c2cncc(F)c2)c1I [Example I-223]	80	90	80	80		80	80		10	20	90		80		100	90	80	80	80	10	Pre-emergence action against AVEFA in % [25]: 100%; Post-emergence action against PHBPU in % ([7]; dosage 80 g/ha): 80%; Pre-emergence action against PHBPU in % [26]: 80%; Post-emergence action against ABUTH in % [27]: 80%; Pre-emergence action against POLCO in % [28]: 80%; Pre-emergence action against VIOTR in % ([15]; dosage 80 g/ha): 90%; Post-emergence action against ECHCG in % ([16]; dosage 80 g/ha): 80%; Post-emergence action against POLCO in % ([19]; dosage 80 g/ha): 80%; Post-emergence action against POLCO in % ([19]; dosage 320 g/ha): 80%; Post-emergence action against DIGSA in % ([22]; 80 g/ha): 80%; Post-emergence action against DIGSA in % ([22]; 320 g/ha): 90%; Post-emergence action against ORYSA in % ([23]; 320 g/ha, effect in comparison to untreated controls): 20%
O=C(COc1nn(-c2ccccn2)c(-c2ccc(F)nc2)c1Br)OCC1CCOC1 (stereo not drawn) [Example I-90]	100	100			80			100	10	20	100	90		100	90			100	90	0	Pre-emergence action against ALOMY ([3]; 80 g/ha): 90%; Pre-emergence action against PHBPU in % [26]: 90%; Post-emergence action against VERPE in % ([8]; dosage 80 g/ha): 90%; Pre-emergence action against AMARE in % ([12]; 80 g/ha): 100%; Pre-emergence action against POLCO in % [28]: 90%; Pre-emergence action against SETVI in % ([14]; dosage 80 g/ha): 90%; Pre-emergence action against MATIN in % [18]: 90%; Pre-emergence action against DIGSA in % [20, 30]: 100%; Post-emergence action against DIGSA in % ([22]; 80 g/ha): 90%; Post-emergence action against ORYSA in % ([23]; 20 g/ha, effect vs untreated controls): 0%; Post-emergence action against ZEAMX in % (crop plant compatibility) ([24]; 20 g/ha, ZEAMX, effect in comparison to untreated controls): 0%; Post-emergence action against ZEAMX in % ([24]; 80 g/ha): 10%
